# From patent US20240287138A1, “CYCLIC PEPTIDES FOR INHIBITING TNF RECEPTOR 1 ACTIVITY” (Merck Sharp & Dohme LLC, priority 2023, published 2024)
# Numbered stars: 1 amine (or outer) side, 2 acyl side, 3 side chain; on linkers, the order of the positions; unused ones are H or OH. Bridge positions count the residues as written; N and C are the ends. Square brackets hold non-standard residues; d marks the D form. Peptide text beside a SMILES is read from it. Trp(βS-Me,7-OMe) = COc1cccc2c([C@H](C)[C@H](N)C(=O)O)c[nH]c12; Phe(3R-OH) = O=C([C@@H](N[*:1])[C@H](O[*:3])c1ccccc1)[*:2]; cBu(1-CO,cis-3-CH2NH) = O=C([C@H]1C[C@@H](CN[*:1])C1)[*:2]; Trp(4-Cl) = N[C@@H](Cc1c[nH]c2cccc(Cl)c12)C(=O)O; Trp(7-Cl) = N[C@@H](Cc1c[nH]c2c(Cl)cccc12)C(=O)O; Phe(4-CONH2) = NC(=O)c1ccc(C[C@H](N)C(=O)O)cc1; Phe(4-COOH) = N[C@@H](Cc1ccc(C(=O)O)cc1)C(=O)O; Trp(7-F) = N[C@@H](Cc1c[nH]c2c(F)cccc12)C(=O)O; Trp(7-aza) = N[C@@H](Cc1c[nH]c2ncccc12)C(=O)O; X10 = O=C([C@H](Cc1ccnc2ccccc12)N[*:1])[*:2]; X2 = C[C@@H]1CC[C@@H](C(=O)[*:2])N([*:1])C1; Pip(5R-OH) = O=C(O)[C@@H]1CC[C@@H](O)CN1; X13 = O=C([C@H]1CC[C@@H](N[*:1])C1)[*:2]; X1 = O=C([C@@H]1CC[C@H](N[*:1])C1)[*:2]; dPro(4,4-F2) = O=C(O)[C@H]1CC(F)(F)CN1; d(cisHyp) = O=C(O)[C@H]1C[C@@H](O)CN1; Pip(4-aza) = O=C(O)[C@@H]1CNCCN1; hPhe = N[C@@H](CCc1ccccc1)C(=O)O; 4Pal = N[C@@H](Cc1ccncc1)C(=O)O; NMeE = CN[C@@H](CCC(=O)O)C(=O)O; Cit = NC(=O)NCCC[C@H](N)C(=O)O; αMeS = C[C@](N)(CO)C(=O)O; NMeA = CN[C@@H](C)C(=O)O; Nle = CCCC[C@H](N)C(=O)O; Sar = CNCC(=O)O
# Tests used:
# [1] = target: T1, human soluble TNFR1 (sTNFR1) (Homo sapiens, UniProt P19438); experiment: Human sTNFR1-peptide displacement assay (LanthaScreen Eu TR-FRET binding assay)
# T1 construct: made in house; host or cells: Sf21 (baculovirus)
# T1 sequence (P19438 with tags, fused parts or gaps): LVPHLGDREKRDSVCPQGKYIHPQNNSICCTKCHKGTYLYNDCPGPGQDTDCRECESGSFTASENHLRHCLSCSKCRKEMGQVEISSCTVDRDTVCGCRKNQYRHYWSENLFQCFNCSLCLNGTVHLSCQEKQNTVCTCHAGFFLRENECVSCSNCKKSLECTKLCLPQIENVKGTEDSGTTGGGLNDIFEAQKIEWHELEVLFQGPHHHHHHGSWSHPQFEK
# How it was run: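 Readout is the 665/615 nm TR-FRET ratio (Eu anti-His donor, streptavidin-Alexa647 acceptor), normalized to DMSO and saturating displacer, fit by Morrison-based five-parameter logistic for Kd^app. His-tagged sTNFR1 (1-211) prebound to 100 nM biotinylated peptide SEQ ID NO.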
# human TNFR2 ECD protein = target: T2, human TNFR2 ECD protein (Homo sapiens, UniProt P20333); experiment: SPR off-target binding (selectivity) to human TNFR2 ECD
# T2 construct: HRV 3C protease cleavage site (C); 6His (C, cleaved yes); made in house; host or cells: Sf21 insect cells (baculovirus), secreted
# T2 sequence (P20333 23-257): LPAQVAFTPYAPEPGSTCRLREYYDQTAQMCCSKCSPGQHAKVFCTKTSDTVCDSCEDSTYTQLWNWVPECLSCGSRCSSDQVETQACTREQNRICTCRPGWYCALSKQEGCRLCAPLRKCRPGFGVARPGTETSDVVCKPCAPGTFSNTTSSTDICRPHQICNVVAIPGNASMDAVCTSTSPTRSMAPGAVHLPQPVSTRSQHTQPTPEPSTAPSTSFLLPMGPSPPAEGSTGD
# How it was run: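 SPR kinetics: peptides over captured avi-biotinylated receptor ECDs, TNFR1 for affinity, TNFR2 run in parallel for off-target binding. Running buffer HEPES pH 7.4 with 150 mM NaCl, 3 mM EDTA, 0.05% P20, 2% DMSO; surface regenerated between analytes. Affinity derived from kon/koff.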
Structure (SMILES),IC50 [1] [nM],Kd (human TNFR2 ECD protein) [nM],Kd [1] [nM]
CN1CC(=O)N[C@@H](Cc2c[nH]c3ccccc23)C(=O)N[C@H](C(N)=O)CSCC(=O)N[C@@H](CCCCN)C(=O)N[C@@H](Cc2ccc(O)cc2)C(=O)N[C@@H](CO)C(=O)N[C@@H](Cc2c[nH]c3ccccc23)C(=O)N2CCC[C@@H]2C(=O)N[C@@H](CCCNC(N)=O)C(=O)N[C@@H](Cc2ccncc2)C(=O)N[C@@H](Cc2c[nH]c3ccccc23)C(=O)N[C@@](C)(CO)C(=O)N[C@@H](Cc2ccc(C(=O)O)cc2)C(=O)N[C@@H](Cc2ccc(O)cc2)C1=O [SEQ ID NO. 256] ({CH2CO}-KYSW[dP][Cit][4Pal]W[αMeS][Phe(4-COOH)]Y[Sar]WC-NH2; thioether N-14),1.84,> 1000,
"CCCC[C@@H]1NC(=O)CSC[C@@H](C(N)=O)NC(=O)[C@H]([C@@H](C)c2c[nH]c3c(OC)cccc23)NC(=O)CN(C)C(=O)[C@H](Cc2ccc(O)cc2)NC(=O)[C@H](Cc2ccc(C(=O)O)cc2)NC(=O)[C@](C)(CO)NC(=O)[C@H](Cc2c[nH]c3c(Cl)cccc23)NC(=O)[C@H](Cc2ccncc2)NC(=O)[C@H](CC(N)=O)NC(=O)[C@H](CCC(=O)O)N(C)C(=O)[C@H](Cc2c[nH]c3ncccc23)NC(=O)[C@H](CO)NC(=O)[C@H]([C@H](O)c2ccccc2)NC1=O [SEQ ID NO. 259] ({CH2CO}-[Nle][Phe(3R-OH)]S[Trp(7-aza)][NMeE]N[4Pal][Trp(7-Cl)][αMeS][Phe(4-COOH)]Y[Sar][Trp(βS-Me,7-OMe)]C-NH2; thioether N-14)",,> 1000,0.22
C[C@H]1C(=O)N[C@@H](CC(N)=O)C(=O)N[C@@H](Cc2ccncc2)C(=O)N[C@@H](Cc2c[nH]c3ccccc23)C(=O)N[C@@](C)(CO)C(=O)N[C@@H](Cc2ccc(C(=O)O)cc2)C(=O)N[C@@H](CCCNC(=N)N)C(=O)N(C)CC(=O)N[C@@H](Cc2c[nH]c3ccccc23)C(=O)N[C@H](C(N)=O)CSCC(=O)N[C@@H](CCc2ccccc2)C(=O)N[C@@H](Cc2ccc(O)cc2)C(=O)N[C@@H](CO)C(=O)N[C@@H](Cc2c[nH]c3ccccc23)C(=O)N1C [SEQ ID NO. 260] ({CH2CO}-[hPhe]YSW[NMeA]N[4Pal]W[αMeS][Phe(4-COOH)]R[Sar]WC-NH2; thioether N-14),10.2,> 1000,
"CCCC[C@@H]1NC(=O)CSC[C@@H](C(N)=O)NC(=O)[C@H]([C@@H](C)c2c[nH]c3c(OC)cccc23)NC(=O)CN(C)C(=O)[C@H](Cc2ccc(O)cc2)NC(=O)[C@H](Cc2ccc(C(=O)O)cc2)NC(=O)[C@](C)(CO)NC(=O)[C@H](Cc2c[nH]c3c(Cl)cccc23)NC(=O)[C@H](Cc2ccncc2)NC(=O)[C@H](CC(N)=O)NC(=O)[C@H]2C[C@@H](O)CN2C(=O)[C@H](Cc2c[nH]c3ncccc23)NC(=O)[C@@H]2CNCCN2C(=O)[C@H](Cc2ccncc2)NC1=O [SEQ ID NO. 261] ({CH2CO}-[Nle][4Pal][Pip(4-aza)][Trp(7-aza)][d(cisHyp)]N[4Pal][Trp(7-Cl)][αMeS][Phe(4-COOH)]Y[Sar][Trp(βS-Me,7-OMe)]C-NH2; thioether N-14)",0.4,> 1000,0.3
"CCCC[C@@H]1NC(=O)[C@@H]2CC[C@@H](C2)NC(=O)[C@H]([C@@H](C)c2c[nH]c3c(OC)cccc23)NC(=O)CN(C)C(=O)[C@H](Cc2ccc(O)cc2)NC(=O)[C@H](Cc2ccc(C(=O)O)cc2)NC(=O)[C@](C)(CO)NC(=O)[C@H](Cc2c[nH]c3c(Cl)cccc23)NC(=O)[C@H](Cc2ccncc2)NC(=O)[C@H](CC(N)=O)NC(=O)[C@H](CCC(=O)O)N(C)C(=O)[C@H](Cc2c[nH]c3c(Cl)cccc23)NC(=O)[C@@H]2CNCCN2C(=O)[C@H](Cc2ccncc2)NC1=O [SEQ ID NO. 262] (cyclo([4Pal][Trp(7-Cl)][αMeS][Phe(4-COOH)]Y[Sar][Trp(βS-Me,7-OMe)][X1][Nle][4Pal][Pip(4-aza)][Trp(7-Cl)][NMeE]N))",,> 1000,0.39
C[C@H]1C(=O)N[C@@H](CC(N)=O)C(=O)N[C@@H](Cc2ccncc2)C(=O)N[C@@H](Cc2c[nH]c3ccccc23)C(=O)N[C@@](C)(CO)C(=O)N[C@@H](Cc2ccc(C(=O)O)cc2)C(=O)N[C@@H](Cc2ccc(O)cc2)C(=O)N(C)CC(=O)N[C@@H](Cc2c[nH]c3ccccc23)C(=O)N[C@H](C(N)=O)CSCC(=O)N[C@@H](CCc2ccccc2)C(=O)N[C@@H](Cc2ccc(O)cc2)C(=O)N[C@@H](CO)C(=O)N[C@@H](Cc2c[nH]c3c(F)cccc23)C(=O)N1C [SEQ ID NO. 263] ({CH2CO}-[hPhe]YS[Trp(7-F)][NMeA]N[4Pal]W[αMeS][Phe(4-COOH)]Y[Sar]WC-NH2; thioether N-14),2.88,> 1000,
"CCCC[C@@H]1NC(=O)[C@@H]2CC[C@@H](C2)NC(=O)[C@H]([C@@H](C)c2c[nH]c3c(OC)cccc23)NC(=O)CN(C)C(=O)[C@H](Cc2ccc(O)cc2)NC(=O)[C@H](Cc2ccc(C(=O)O)cc2)NC(=O)[C@](C)(CO)NC(=O)[C@H](Cc2c[nH]c3c(Cl)cccc23)NC(=O)[C@H](Cc2ccncc2)NC(=O)[C@H](CC(N)=O)NC(=O)[C@H]2CC(F)(F)CN2C(=O)[C@H](Cc2c[nH]c3ccccc23)NC(=O)[C@@H]2CNCCN2C(=O)[C@H](Cc2ccncc2)NC1=O [SEQ ID NO. 266] (cyclo([4Pal][Trp(7-Cl)][αMeS][Phe(4-COOH)]Y[Sar][Trp(βS-Me,7-OMe)][X1][Nle][4Pal][Pip(4-aza)]W[dPro(4,4-F2)]N))",,> 1000,0.45
"CCCC[C@@H]1NC(=O)[C@H]2CC[C@H](C2)NC(=O)[C@H]([C@@H](C)c2c[nH]c3c(OC)cccc23)NC(=O)CN(C)C(=O)[C@H](Cc2ccc(O)cc2)NC(=O)[C@H](Cc2ccc(C(N)=O)cc2)NC(=O)[C@](C)(CO)NC(=O)[C@H](Cc2c[nH]c3c(Cl)cccc23)NC(=O)[C@H](Cc2ccc(C(=O)O)cc2)NC(=O)[C@H](CC(N)=O)NC(=O)[C@H](CCC(=O)O)N(C)C(=O)[C@H](Cc2c[nH]c3ccccc23)NC(=O)[C@@H]2CC[C@@H](O)CN2C(=O)[C@H](Cc2ccncc2)NC1=O [SEQ ID NO. 267] (cyclo([4Pal][Pip(5R-OH)]W[NMeE]N[Phe(4-COOH)][Trp(7-Cl)][αMeS][Phe(4-CONH2)]Y[Sar][Trp(βS-Me,7-OMe)][X13][Nle]))",,> 1000,0.29
"CCCC[C@@H]1NC(=O)[C@H]2C[C@@H](CNC(=O)[C@H]([C@@H](C)c3c[nH]c4c(OC)cccc34)NC(=O)CN(C)C(=O)[C@H](Cc3ccc(O)cc3)NC(=O)[C@H](Cc3ccc(C(=O)O)cc3)NC(=O)[C@](C)(CO)NC(=O)[C@H](Cc3c[nH]c4c(Cl)cccc34)NC(=O)[C@H](Cc3ccncc3)NC(=O)[C@H](CC(N)=O)NC(=O)[C@H](CCC(=O)O)N(C)C(=O)[C@H](Cc3c[nH]c4ccccc34)NC(=O)[C@@H]3CNCCN3C(=O)[C@H](Cc3ccncc3)NC1=O)C2 [SEQ ID NO. 268] (cyclo([4Pal][Trp(7-Cl)][αMeS][Phe(4-COOH)]Y[Sar][Trp(βS-Me,7-OMe)][cBu(1-CO,cis-3-CH2NH)][Nle][4Pal][Pip(4-aza)]W[NMeE]N))",0.77,> 1000,0.45
"CCCC[C@@H]1NC(=O)CSC[C@@H](C(N)=O)NC(=O)[C@H]([C@@H](C)c2c[nH]c3c(OC)cccc23)NC(=O)CN(C)C(=O)[C@H](Cc2ccc(O)cc2)NC(=O)[C@H](Cc2ccc(C(=O)O)cc2)NC(=O)[C@](C)(CO)NC(=O)[C@H](Cc2c[nH]c3c(Cl)cccc23)NC(=O)[C@H](Cc2ccncc2)NC(=O)[C@H](CC(N)=O)NC(=O)[C@H](CCC(=O)O)N(C)C(=O)[C@H](Cc2c[nH]c3ccccc23)NC(=O)[C@@H]2CC[C@@H](C)CN2C(=O)[C@H](Cc2ccncc2)NC1=O [SEQ ID NO. 272] ({CH2CO}-[Nle][4Pal][X2]W[NMeE]N[4Pal][Trp(7-Cl)][αMeS][Phe(4-COOH)]Y[Sar][Trp(βS-Me,7-OMe)]C-NH2; thioether N-14)",0.3,> 1000,0.21
C[C@@]1(CO)NC(=O)[C@H](Cc2c[nH]c3ncccc23)NC(=O)[C@H](Cc2ccncc2)NC(=O)[C@H](CC(N)=O)NC(=O)[C@H]2CCCN2C(=O)[C@H](Cc2ccnc3ccccc23)NC(=O)[C@H](CO)NC(=O)[C@H](Cc2ccncc2)NC(=O)[C@H](CCC(N)=O)NC(=O)CSC[C@@H](C(N)=O)NC(=O)[C@H](Cc2c[nH]c3cccc(Cl)c23)NC(=O)[C@@H]2CCCN2C(=O)[C@H](Cc2ccc(O)cc2)NC(=O)[C@H](Cc2ccc(C(=O)O)cc2)NC1=O [SEQ ID NO. 278] ({CH2CO}-Q[4Pal]S[X10][dP]N[4Pal][Trp(7-aza)][αMeS][Phe(4-COOH)]YP[Trp(4-Cl)]C-NH2; thioether N-14),8.69,> 1000,
